Experimental data reported in US20230108906A1, “SUBSTITUTED BICYCLIC AND TRICYCLIC UREAS AND AMIDES, ANALOGUES THEREOF, AND METHODS USING SAME” (Arbutus Biopharma Corporation, priority 2019, published 2023).
pEC50: −log10 of the molar value. Where two headings read alike, the source gives them in different places.

Tested on: HBV rcDNA in HepDE19 cells
Assay: HepDE19 assay with bDNA quantitation of HBV rcDNA
Format: cell-based, hepatitis B virus (HBV)
Settings: inhibition of rcDNA formation in HepDE19 cells (HepG2 derived), Tet-free medium, 7 day incubation, Quantigene 2.0 bDNA readout, top concentration 25 μM, read-out: DE-19bDNA EC50
Experimental: HepDE19 Assay with bDNA Quantitation of HBV rcDNA:
HepDE19 cell culture system is a HepG2 (human hepatocarcinoma) derived cell line that supports HBV DNA replication and cccDNA formation in a tetracycline (Tet)-regulated manner and produces HBV rcDNA and a detectable reporter molecule dependent on the production and maintenance of cccDNA (Guo, et al., 2007, J. Virol. 81:12472-12484).
HepDE19 (50,000 cells/well) were plated in 96-well collagen-coated tissue-culture treated microtiter plates in DMEM/F12 medium supplemented with 10% fetal bovine serum, 1% penicillin-streptomycin and 1 μg/mL tetracycline and incubated in a humidified incubator at 37° C. and 5% CO2 overnight. Next day, the cells were switched to fresh medium without tetracycline and incubated for 4 hours at 37° C. and 5% CO2. The cells were treated with fresh Tet-free medium with compounds at concentrations starting at 25 μM and a serial, […], 8-point, titration series in duplicate. The final DMSO concentration in the assay was 0.5%. The plates were incubated for 7 days in a humidified incubator at 37° C. and 5% CO2. Following a 7 day-incubation, the level of rcDNA present in the inhibitor-treated wells was measured using a Quantigene 2.0 bDNA assay kit (Affymetrix, Santa Clara, Calif.) with HBV specific custom probe set and manufacturers instructions. Concurrently, the effect of compounds on cell viability was assessed using replicate plates, plated at a density of 5,000 cells/well and incubated for 4 days, to determine the ATP content as a measure of cell viability using the cell-titer glo reagent (CTG; Promega Corporation, Madison, Wis.) as per manufacturer's instructions. The plates were read using a Victor luminescence plate reader (PerkinElmer Model 1420 Multilabel counter) and the relative luminescence units (RLU) data generated from each well was calculated as % inhibition of the untreated control wells and analyzed using XL-Fit module in Microsoft Excel to determine EC50 and EC90 (bDNA) and CC50 (CTG) values using a 4-parameter curve fitting algorithm.
Representative compounds of the disclosure were tested for their abilities to inhibit formation of relaxed circular DNA (rcDNA) in a HepDE19 assay, as described elsewhere herein.

[1] = Hepatitis B virus, HepDE19, 168 h

| SMILES | pEC50 | pEC50 [1] |
| --- | --- | --- |
| CCN(C(=O)Nc1ccc(F)c(Cl)c1)C1CCCc2[nH]c(=O)c3c(c21)CCCC3 (single isomer, unassigned) [Compound 54, 3-(3-Chloro-4-fluorophenyl)-1-ethyl-1-(6-oxo-1,2,3,4,5,6,7,8,9,10-decahydrophenanthridin-1-yl)urea] | 7.52 | – |
| CN(C(=O)Nc1ccc(F)c(Cl)c1)C1CCCc2[nH]c(=O)c3c(c21)CCOC3 (single isomer, unassigned) [Compound 60, 3-(3-Chloro-4-fluorophenyl)-1-methyl-1-(5-oxo-1,4,5,6,7,8,9,10-octahydro-2H-pyrano[3,4-c]quinolin-10-yl)urea] | – | 5.49 |
| CN(C(=O)Nc1ccc(F)c(Cl)c1)C1CCCc2[nH]c(=O)c3c(c21)CCOC3 (single isomer, unassigned) [Compound 61, 3-(3-Chloro-4-fluorophenyl)-1-methyl-1-(5-oxo-1,4,5,6,7,8,9,10-octahydro-2H-pyrano[3,4-c]quinolin-10-yl)urea] | 5.29 | – |
| CN(C(=O)Nc1ccc(F)c(F)c1)C1CCCc2[nH]c(=O)c3c(c21)CCOC3 (single isomer, unassigned) [Compound 62, 3-(3,4-Difluorophenyl)-1-methyl-1-(5-oxo-1,4,5,6,7,8,9,10-octahydro-2H-pyrano[3,4-c]quinolin-10-yl)urea] | 5.89 | – |
| CN(C(=O)Nc1ccc(F)c(F)c1)C1CCCc2[nH]c(=O)c3c(c21)CCOC3 (single isomer, unassigned) [Compound 63, 3-(3,4-Difluorophenyl)-1-methyl-1-(5-oxo-1,4,5,6,7,8,9,10-octahydro-2H-pyrano[3,4-c]quinolin-10-yl)urea] | 5.51 | – |
| CN(C(=O)Nc1ccc(F)c(C#N)c1)[C@@H]1COCc2[nH]c(=O)c3cc(F)ccc3c21 (single isomer, unassigned) [Compound 64] | – | 7.70 |
| O=C(Nc1ccc(F)c(Cl)c1)N[C@@H]1COCc2[nH]c(=O)c3cc(F)ccc3c21 (single isomer, unassigned) [Compound 67] | – | 7.05 |
| O=C(Nc1ccc(F)c(Cl)c1)N[C@@H]1COCc2[nH]c(=O)c3cc(F)c(F)cc3c21 (single isomer, unassigned) [Compound 68] | – | 7.52 |
| Cc1cc(NC(=O)N(C)[C@@H]2COCc3[nH]c(=O)c4cc(F)c(F)cc4c32)ccc1F (single isomer, unassigned) [Compound 69] | – | 8.00 |
| CN(C(=O)Nc1ccc(F)c(C#N)c1)[C@@H]1COCc2[nH]c(=O)c3cc(F)c(F)cc3c21 (single isomer, unassigned) [Compound 70] | – | 8.00 |
| CN(C(=O)Nc1ccc(F)c(Cl)c1)[C@H]1COCc2[nH]c(=O)c3cc(F)c(F)cc3c21 (single isomer, unassigned) [Compound 71] | – | 6.68 |
| CN(C(=O)Nc1ccc(F)c(Cl)c1)[C@@H]1COCc2[nH]c(=O)c3cc(F)c(F)cc3c21 (single isomer, unassigned) [Compound 72] | – | 8.00 |
| CN(C(=O)Nc1ccc(F)c(Cl)c1)C1CCCc2[nH]c(=O)c3c(c21)COCC3 (single isomer, unassigned) [Compound 79, 3-(3-Chloro-4-fluorophenyl)-1-methyl-1-(5-oxo-3,4,5,6,7,8,9,10-octahydro-1H-pyrano[4,3-c]quinolin-10-yl)urea] | – | ≤ 4.60 |
| CN(C(=O)Nc1ccc(F)c(F)c1)C1CCCc2[nH]c(=O)c3c(c21)COCC3 (single isomer, unassigned) [Compound 81, 3-(3,4-Difluorophenyl)-1-methyl-1-(5-oxo-3,4,5,6,7,8,9,10-octahydro-1H-pyrano[4,3-c]quinolin-10-yl)urea] | ≤ 4.60 | – |
| CN(C(=O)Nc1ccc(F)c(F)c1)C1CCCc2[nH]c(=O)c3c(c21)COCC3 (single isomer, unassigned) [Compound 82, 3-(3,4-Difluorophenyl)-1-methyl-1-(5-oxo-3,4,5,6,7,8,9,10-octahydro-1H-pyrano[4,3-c]quinolin-10-yl)urea] | 5.14 | – |
| CN(C(=O)Nc1ccc(F)c(Cl)c1)C1COCc2[nH]c(=O)c3c(c21)COCC3 (single isomer, unassigned) [Compound 83, 3-(3-Chloro-4-fluorophenyl)-1-methyl-1-(5-oxo-4,5,6,7,9,10-hexahydro-1H,3H-dipyrano[3,4-b:3′,4′-d]pyridin-10-yl)urea] | ≤ 4.60 | – |
| CN(C(=O)Nc1ccc(F)c(Cl)c1)C1COCc2[nH]c(=O)c3c(c21)COCC3 (single isomer, unassigned) [Compound 84, 3-(3-Chloro-4-fluorophenyl)-1-methyl-1-(5-oxo-4,5,6,7,9,10-hexahydro-1H,3H-dipyrano[3,4-b:3′,4′-d]pyridin-10-yl)urea] | 6.08 | – |
| CN(C(=O)Nc1ccc(F)c(F)c1)C1COCc2[nH]c(=O)c3c(c21)COCC3 (single isomer, unassigned) [Compound 85, 3-(3,4-Difluorophenyl)-1-methyl-1-(5-oxo-1,3,4,5,6,7,9,10-octahydrodipyrano[3,4-b:3′,4′-d]pyridin-10-yl)urea] | 5.35 | – |
| CN(C(=O)Nc1ccc(F)c(F)c1)C1COCc2[nH]c(=O)c3c(c21)COCC3 (single isomer, unassigned) [Compound 86, 3-(3,4-Difluorophenyl)-1-methyl-1-(5-oxo-1,3,4,5,6,7,9,10-octahydrodipyrano[3,4-b:3′,4′-d]pyridin-10-yl)urea] | ≤ 4.60 | – |
| CCN(C(=O)Nc1ccc(F)c(Cl)c1)[C@@H]1COCc2[nH]c(=O)c3cc(F)ccc3c21 (single isomer, unassigned) [Compound 87] | – | 8.00 |
| CCN(C(=O)Nc1ccc(F)c(Cl)c1)[C@@H]1COCc2[nH]c(=O)c3cc(F)c(F)cc3c21 (single isomer, unassigned) [Compound 88] | – | 8.00 |
| CN(C(=O)Nc1ccc(F)c(Cl)c1)C1COCc2[nH]c(=O)c3c(c21)CCOC3 (single isomer, unassigned) [Compound 91, 3-(3-Chloro-4-fluorophenyl)-1-methyl-1-(6-oxo-1,2,4,5,6,7,9,10-octahydrodipyrano[3,4-b:4′,3′-d]pyridin-1-yl)urea] | 4.96 | – |
| CN(C(=O)Nc1ccc(F)c(Cl)c1)C1COCc2[nH]c(=O)c3c(c21)CCOC3 (single isomer, unassigned) [Compound 92, 3-(3-Chloro-4-fluorophenyl)-1-methyl-1-(6-oxo-1,2,4,5,6,7,9,10-octahydrodipyrano[3,4-b:4′,3′-d]pyridin-1-yl)urea] | 6.82 | – |
| CN(C(=O)Nc1ccc(F)c(F)c1)C1COCc2[nH]c(=O)c3c(c21)CCOC3 (single isomer, unassigned) [Compound 93, 3-(3,4-Difluorophenyl)-1-methyl-1-(6-oxo-1,2,4,5,6,7,9,10-octahydrodipyrano[3,4-b:4′,3′-d]pyridin-1-yl)urea] | ≤ 4.60 | – |
| CN(C(=O)Nc1ccc(F)c(F)c1)C1COCc2[nH]c(=O)c3c(c21)CCOC3 (single isomer, unassigned) [Compound 94, 3-(3,4-Difluorophenyl)-1-methyl-1-(6-oxo-1,2,4,5,6,7,9,10-octahydrodipyrano[3,4-b:4′,3′-d]pyridin-1-yl)urea] | 6.13 | – |
| CN(C(=O)Nc1cc(Cl)c(F)c(Cl)c1)C1COCc2[nH]c(=O)c3cc(F)ccc3c21 (single isomer, unassigned) [Compound 97, 3-(3,5-Dichloro-4-fluorophenyl)-1-(8-fluoro-6-oxo-1,4,5,6-tetrahydro-2H-pyrano[3,4-c]isoquinolin-1-yl)-1-methylurea] | 5.48 | – |
